Test results reported in paper PMC3395435 (Biopolymers, 2012).

Assays:
Swiss Webster mice [1] = settings: mouse, in vivo; cited from earlier work
Swiss Webster mice [2] = settings: mouse, in vivo
[3] = assay type: physicochemical; settings: pH 7.5
rat vas deferens = settings: cited from earlier work

## ω-conotoxin GVIA
Swiss Webster mice [1]
  duration of shaking syndrome, previous work: maintained for a long time in a dose-dependent manner
  shaking syndrome, previous work: induce shaking syndrome in mice
Swiss Webster mice [2]
  duration of shaking syndrome: maintained for a long time
  shaking syndrome (persistent body tremor): exhibited the shaking syndrome
[3]
  natively folded peptide retained at the steady state: about 60%
Rat vas deferens
  Biological activity (twitch responses): 10 nM
